Measurements from patent publication US8748485B2, “Compound and medical use thereof” (Ono Pharmaceuticals Co., Ltd., priority 2010, dated 2014).

Columns and labels:
[1] = system: rat model injected with 6-hydroxydopamine into the medial forebrain bundle; test: Rotation test in model injected with 6-hydroxydopamine into medial forebrain bundle; assay type: in vivo, rats (male Crl:CD(SD)IGS); conditions: 6-OHDA rats
Source text: In the experiment, male Crl:CD(SD)IGS rats (Charles River Japan, Inc.) supplied at 5 weeks of age were used. The rats were housed in Econ cages (4 or less rats per cage) and were raised by giving free access to solid feed CRF-1 (Oriental Yeast Co., Ltd.) and tap water (in a water bottle) until they were subjected to the experiment. When acclimation after shipping was completed, each of the Crl:CD(SD)IGS rats at 6 weeks of age was anesthetized with pentobarbital sodium (Somnopentyl (registered trademark) injectable solution, 35 mg/kg, intraperitoneal injection). Subsequently, for the purpose of preventing damage to norepinephrine neurons by 6-hydroxydopamine (6-OHDA), desipramine (25 mg/kg) was intraperitoneally injected, and the rat was held and fixed by a brain fixation device. A small bone window was opened with a hand drill at a desired site, and 6-OHDA was injected into the medial forebrain bundle according to the brain atlas of Paxinos and Watson using a 30 G cannula (Brain Science Idea. Co. Ltd.) with a needle tip cut at an angle of 45° (site of injection: A=−4.5 mm, L=+1.2 mm, and V=−7.8 mm with respect to the bregma, injection amount: 8 μg/4 μL/8 min/site in each case). […] Thereafter, the burr hole was closed with an instant glue, and then sutured and disinfected with iodine tincture. […] In a rotation test, a device configured such that a black plastic circular cylinder having a diameter of 30 cm and a height of 35 cm was placed upright in a black-painted bowl having an opening diameter of 35 cm and a bottom diameter of 17 cm was used (the height of the curve from the bottom of the bowl to the bottom edge of the cylinder was set to 7 cm). The rat was placed in the device (one rat per device) and acclimated to the device for 30 minutes. Thereafter, a test substance was administered to the rat, and the rat was returned to the same device and videotaped. […] As for the number of rotations, a 360° rotation in one direction was determined to be one rotation. In the case where the direction (body's direction of movement or movement direction) was changed during rotation, the rotation was not included in the count. […] Incidentally, in each case, benserazide which is a dopa decarboxylase inhibitor (8 mg/kg) was orally administered concomitantly. […] In addition, the respective values are each a mean of the values obtained using 11 rats in each group and its standard error.

[2] = Kinetic study in dogs (effect of salt or crystal form on blood kinetics); assay type: in vivo; conditions: 6 mg/3 mL/kg expressed in terms of levodopa
Method: (2) Kinetic Study in Dogs (Effect of Salt or Crystal Form on Blood Kinetics)
In general, it is considered that when the salt or crystal form is different, a difference in solubility thereof or the like affects blood kinetics and sometimes causes a difference in potency of efficacy.
The collection of a plasma sample was carried out according to the previous section (1). However, the dose was set to 6 mg/3 mL/kg.
The preparation of an analytical sample and analysis were carried out according to the previous section (1).
In the above Table 6, a change over time in the concentration (μg/mL) of levodopa observed in the plasma when the compound of the present invention produced in Example 6, the compound of the present invention produced in Example 9, or the compound of the present invention produced in Example 10 was orally administered to dogs is shown. The numeral expressed with ± in the parenthesis represents a standard deviation.

[3] = Kinetic study in dogs (oral administration, plasma levodopa)
Source text: The relationship between the blood concentration of levodopa and side effects in patients who take levodopa has been gradually elucidated. […] In order to reduce the number of doses of levodopa and avoid side effects such as dyskinesia and wearing-off in patients who take levodopa, it is necessary to maintain the blood concentration of levodopa within a therapeutic range as long as possible.
These levodopa prodrugs are prodrugs containing an ester bond, and therefore, it is considered that among a number of enzymes, carboxyesterase plays the most important role in the process of producing levodopa by metabolizing the compound after the compound is administered in vivo. Therefore, as an animal species to be used for performing a kinetic study, dogs in which the organ distribution of carboxyesterase is most similar to that of humans were selected as subjects for evaluation.
The thus obtained drug solution was administered by gavage through a gastric tube into the stomach of dogs (male beagle dogs) which were fasted from the day before the administration. At 15 and 30 minutes, and 1, 2, 4, 6, and 8 hours after administration of the drug solution, 1 mL of blood was collected from a cephalic vein with a heparinized syringe. Immediately after the collection, the collected blood was centrifuged in a desktop centrifuge at 14500 rpm for 45 seconds. Then, acetonitrile containing 0.1125% formic acid was added to the thus obtained plasma in an amount as twice as large as the volume of the plasma, followed by stirring, and then, the resulting sample was stored at −20° C. until measurement.
The sample was thawed on the measurement day, followed by stirring and centrifugation at 13000 rpm for 3 minutes (at 4° C.). The resulting supernatant was filtered and the filtrate was analyzed by LC/MS/MS. The analysis was performed by LC/MS/MS under the following conditions.
Measurement Apparatus: API-5000 (manufactured by Applied Biosystems, Inc.)
Analytical column: CAPCELL PAK CR (1:4) (4.6 mm, I.D.×250 mm, 5 μm)
Analytical column temperature: 40° C.
Mobile phase: A: 5 mM ammonium formate (pH 3.9), B: acetonitrile (A/B=17/3)
Detection (levodopa): m/z (precursor): 196.19, m/z (product): 134.99
DP (Declustering Potential): −60
CE (Collision Energy): −25
CXP (Collision Cell Exit Potential): −17
Incidentally, the numerical value in the column which indicates the dose expressed in terms of levodopa refers to a dose equivalent to that of levodopa.

p53R2 = test: Mutagenicity assay using mammalian cells (NESMAGET method); assay type: cell-based; conditions: for Mutagenicity assay (NESMAGET) Concentration at which mutagenicity was determined to be positive: concentration at which relative luciferase activity of p53R2 exceeded 200% (vehicle control 0.3% dimethylsulfoxide = 100%); for determination of mutagenicity: positive = relative luciferase activity of p53R2 exceeded 200%, compound of the present invention up to 200 μg/mL
Method: In the treatment of Parkinson's disease and/or Parkinson's syndrome, there is a possibility that a levodopa prodrug is continued to be taken over a long period of time of several years to several decades. Therefore, an evaluation was carried out as to whether or not the compound of the present invention has mutagenicity by a mutagenicity assay using mammalian cells.
A mutagenicity assay using mammalian cells was carried out as a commissioning test to be undertaken by Nissin Foods Holdings Co., Ltd. The present method also called NESMAGET method is a method in which the expression of p53R2 which is a DNA repair gene is detected by luciferase activity, and the specific experimental technique is described in JP-A-2005-000024 and Japanese Patent No. 4243716. In the determination as to whether or not the result of this test was positive, the luciferase activity of p53R2 in the case of a vehicle control (0.3% dimethylsulfoxide) was taken as 100%, and a concentration at which a relative luciferase activity exceeded 200% was determined to be “concentration at which mutagenicity was determined to be positive”.

[4] = in vivo; cited from earlier work
[5] = male, beagle, dog, in vivo, po, 3 mg/kg

SMILES	Absorption through oral administration [2]	AUC (area under the blood concentration-time curve of levodopa) ([3]; dog, in vivo, po, 3 mg/kg)	Cmax/C6 hr (ratio of maximum plasma concentration and plasma concentration at 6 hours after oral administration, levodopa) [3, 5]	Mutagenicity assay (NESMAGET) Concentration at which mutagenicity was determined to be positive (p53R2)	determination of mutagenicity (p53R2)	further results
CC(C)(OC(=O)c1ccccc1)C(=O)Oc1ccc(C[C@H](N)C(=O)O)cc1OC(=O)C(C)(C)OC(=O)c1ccccc1 [Example 9, (2S)-2-amino-3-(3,4-bis((2-(benzoyloxy)-2-methylpropanoyl)oxy)phenyl)propanoic acid]	can be absorbed through oral administration					rotational behavior compared with the compound produced in Example 5 ([1]; used in place of Example 5): the same results were obtained
CC(C)(COC(=O)c1ccccc1)C(=O)Oc1ccc(C[C@H](N)C(=O)O)cc1OC(=O)C(C)(C)COC(=O)c1ccccc1.Cl [Reference Example 40, (S)-2-Amino-3-(3,4-bis((3-(benzoyloxy)-2,2-dimethylpropanoyl)oxy)phenyl)propanoic acid hydrochloride]		0.81 μg^+ hr/mL	4.3	16 µg/mL	positive for mutagenicity	
CC(C)(OC(=O)c1ccccc1)C(=O)Oc1ccc(C[C@H](N)C(=O)O)cc1OC(=O)C(C)(C)OC(=O)c1ccccc1 [Example 10, (2S)-2-amino-3-(3,4-bis((2-(benzoyloxy)-2-methylpropanoyl)oxy)phenyl)propanoic acid]	can be absorbed through oral administration					
COc1ccccc1C(=O)OCC(C)(C)C(=O)Oc1ccc(C[C@H](N)C(=O)O)cc1OC(=O)C(C)(C)COC(=O)c1ccccc1OC.Cl [Reference Example 16]		0.22 μg^+ hr/mL	7.4	84 µg/mL	positive for mutagenicity	
CC(C)(OC(=O)c1ccccc1)C(=O)Oc1ccc(C[C@H](N)C(=O)O)cc1OC(=O)C(C)(C)OC(=O)c1ccccc1.Cc1ccc(S(=O)(=O)O)cc1 [Example 6, (2S)-2-amino-3-(3,4-bis((2-(benzoyloxy)-2-methylpropanoyl)oxy)phenyl)propanoic acid tosylate]	can be absorbed through oral administration					
N[C@@H](Cc1ccc(O)c(O)c1)C(=O)O [Levodopa, L-3,4-dihydroxyphenylalanine]			913.8			time after administration at which the number of rotations reached a maximum value ([1]; oral, levodopa 30 mg/kg or Example 5 100 mg/kg expressed in terms of levodopa, benserazide 8 mg/kg): 20 min; maximum value of the number of rotations per 10 minutes ([1]; oral, levodopa 30 mg/kg or Example 5 100 mg/kg expressed in terms of levodopa, benserazide 8 mg/kg concomitantly, N=11): about 100 times; percentage of the absorbed levodopa distributed in the central nervous system [4]: less than 1%; share of the absorbed levodopa metabolized by aromatic L-amino acid decarboxylase (AADC) in organs other than the central nervous system [4]: ≥ 95%; AUC (area under the blood concentration-time curve of levodopa) ([3]; levodopa in plasma, fasted male beagle dogs, oral gavage, dose 3 mg/kg expressed in terms of levodopa): 0.96 μg^+ hr/mL; AUC ([3]; male, beagle, dog, plasma, po, 3 mg/kg): 960 ng·h/mL
CC(C)(COC(=O)c1cccs1)C(=O)Oc1ccc(C[C@H](N)C(=O)O)cc1OC(=O)C(C)(C)COC(=O)c1cccs1.Cl [Reference Example 6, (2S)-2-Amino-3-(3,4-bis((2,2-dimethyl-3-((thiophene-2-carbonyl)oxy)propanoyl)oxy)phenyl)propanoic acid hydrochloride]		0.66 μg^+ hr/mL	14.7	2.4 µg/mL	positive for mutagenicity	
